Measured values reported in article PMC12596218 (Journal of Lipid Research, 2025).
Several values for one entry are separate records, joined by “and”; a condition that tells them apart may be missing. Equal entries are not always repeated. Where two headings read alike, the source gives them in different places.

How the values were obtained:
SOAT = molecular target: T1, SOAT (Homo sapiens, UniProt Q3KNW5); assay: [3H]DHEAS transport inhibition assay in SOAT-HEK293 cells; type: cell-based; conditions: 1 μM [3H]DHEAS; for IC50: 10 min, SOAT-HEK293, two independent experiments
T1 construct: stably transfected with the full open reading frames of human NTCP, ASBT, SOAT, OATP1B1, OATP1B3, OATP2B1, and murine Asbt (mAsbt); expressed in transfected cells; host or cells: HEK293 (Flp-In), stably transfected, tetracycline-induced
T1 sequence (Q3KNW5 1-377): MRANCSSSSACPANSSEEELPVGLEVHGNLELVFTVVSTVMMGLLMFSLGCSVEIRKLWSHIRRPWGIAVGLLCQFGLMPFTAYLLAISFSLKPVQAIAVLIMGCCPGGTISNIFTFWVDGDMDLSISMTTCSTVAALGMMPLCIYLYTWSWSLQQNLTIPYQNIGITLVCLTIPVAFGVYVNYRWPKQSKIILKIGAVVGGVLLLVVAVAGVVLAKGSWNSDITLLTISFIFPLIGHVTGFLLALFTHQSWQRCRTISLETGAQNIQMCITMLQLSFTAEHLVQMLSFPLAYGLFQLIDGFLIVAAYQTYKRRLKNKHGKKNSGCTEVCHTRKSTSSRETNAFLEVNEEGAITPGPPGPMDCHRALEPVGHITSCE
Source text: Human embryonic kidney HEK293 cells, stably transfected with the full open reading frames of human NTCP, ASBT, SOAT, OATP1B1, OATP1B3, OATP2B1, and murine Asbt (mAsbt) were used as reported ([18], [20], [21], [22], [23]). The NTCP, ASBT, and mAsbt constructs were C-terminally tagged with the FLAG epitope, and the SOAT construct was C-terminally tagged with green fluorescent protein. Non-transfected Flp-In HEK293 cells (Thermo Fisher Scientific) served as the control. All cell lines were maintained at 37°C, 5% CO2 and 95% humidity in DMEM/F-12 medium (Thermo Fisher Scientific) supplemented with 10% fetal calf serum (Sigma-Aldrich), 4 mM L-glutamine (PAA) and penicillin/streptomycin (PAA). Expression of the respective carrier protein was induced by tetracycline treatment at 1 μg/ml (Carl Roth GmbH + Co. KG).
(§1) Cells were seeded onto poly-L-lysine-coated 96-well plates, induced with 1 μg/ml tetracycline, and grown to confluence over 72 h at 37°C. Then, cells were washed with tempered (37°C) phosphate-buffered saline (PBS, containing 137.0 mM NaCl, 2.7 mM KCl, 1.5 mM KH2PO4, and 7.3 mM Na2HPO4, at pH 7.4) and preincubated with 80 μl sodium transport buffer (STB, containing 142.9 mM NaCl, 4.7 mM KCl, 1.2 mM MgSO4, 1.2 mM KH2PO4, 1.8 mM CaCl2, and 20.0 mM HEPES, at pH 7.4) for 5 min at 37°C. For inhibition studies, the medium was replaced by 80 μl STB containing the respective inhibitor or solvent alone and cells were further incubated for 5 min at 37°C. Transport experiments were started by adding 20 μl of a 5-fold concentrated substrate solution (solved in STB). For transport experiments under sodium-free conditions the same buffer composition was used as for STB, but sodium chloride was substituted with equimolar concentrations of choline chloride as previously reported ([20], [24]). Transport experiments were stopped by washing twice with ice-cold PBS and the plates were kept cool on ice until adding the lysis buffer [1% sodium dodecyl sulfate (SDS) and 1 N NaOH]. Then, the cell-associated radioactivity of the respective tritium-labeled substrate or ligand was quantified by liquid scintillation counting using MicroScint-20 scintillation cocktail (Revvity) in a Packard Microplate Scintillation Counter TopCount NXT (Packard Instrument Company). For IC50 transport inhibition measurements, the mean uptake values measured in non-carrier-expressing HEK293 control cells were defined as 0% uptake control and were subtracted from all other values. Values from cells without inhibitor and solvent alone were set to 100%. Finally, all net transport data were expressed as uptake or binding as % of control. All transport or inhibition graphs were generated with GraphPad Prism 6 (GraphPad). Determination of half maximal inhibitory concentrations (IC50) was done by nonlinear regression analysis using the equation log (inhibitor) versus response—variable slope settings. All data points of the IC50 curves represent means ± SD of quadruplicate determinations. For Km measurements, BS uptake in the absence of sodium was regarded as carrier-independent unspecific uptake and was subtracted from the transport rates in the presence of sodium to obtain carrier-specific uptake rates (indicated as dashed lines). From the specific uptake rates, Michaelis Menten Km values were calculated by non-linear regression analysis.

NTCP M290S (NTCP→ASBT) = molecular target: T2, NTCP M290S (NTCP→ASBT) (Homo sapiens, UniProt Q14973, M290S); assay: [3H]TC transport and inhibition assay, NTCP→ASBT mutant in HEK293 cells; type: cell-based; conditions: 1 μM [3H]TC, 10 min
T2 construct: stably transfected with the full open reading frames of human NTCP, ASBT, SOAT, OATP1B1, OATP1B3, OATP2B1, and murine Asbt (mAsbt); expressed in transfected cells; host or cells: HEK293, stably transfected
T2 sequence (Q14973 1-349 M290S): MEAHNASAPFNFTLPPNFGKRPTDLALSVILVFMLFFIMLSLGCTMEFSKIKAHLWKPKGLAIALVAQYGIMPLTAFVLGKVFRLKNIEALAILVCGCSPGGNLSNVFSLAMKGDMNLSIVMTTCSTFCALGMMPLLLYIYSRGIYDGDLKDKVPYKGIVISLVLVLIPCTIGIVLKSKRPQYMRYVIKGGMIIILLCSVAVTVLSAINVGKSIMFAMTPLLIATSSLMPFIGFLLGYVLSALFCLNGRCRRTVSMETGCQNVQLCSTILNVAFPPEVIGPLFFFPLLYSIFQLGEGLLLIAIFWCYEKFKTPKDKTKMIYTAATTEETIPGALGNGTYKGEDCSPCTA
Description: Amplification was performed on a peqSTAR XS PEQLAB PCR cycler (Peqlab) with Pfu DNA polymerase (M774A; Promega) in 18 cycles under the following conditions: initial denaturation for 2 min at 95°C, denaturation for 30 s at 95°C, annealing for 1 min at 55°C, extension for 8 min and 30 s at 72°C, final elongation for 10 min at 72°C and final hold at 4°C. After amplification, the products were digested with DpnI (ER1701; Thermo Fisher Scientific) for 1 h at 37°C and transformed into TOP10 chemically competent E. coli (Thermo Fisher Scientific). Plasmids were isolated using a GeneJET Plasmid Miniprep Kit (Thermo Fisher Scientific) according to the manufacturer's protocol, and the generated point mutations were verified by DNA sequencing (Seqlab Microsynth).
as §1

OATP1B3 = conditions: cited from earlier work; for IC50: read-out: IC50 OATP1B3 inhibition

CCCCC1(CCCC)CS(=O)(=O)c2ccc(N(C)C)cc2[C@@H](c2ccc(OCCCC[N+]34CCN(CC3)CC4)cc2)[C@H]1O [SC-435]
IC50 (SOAT): 8.6 µM and 13.5 µM
Inhibition curves and AUC of NTCP→ASBT mutant compared to wild-type NTCP (NTCP M290S (NTCP→ASBT)): still inactive

CCCCC1(CCCC)CN(c2ccccc2)c2cc(SC)c(OCC(=O)N[C@@H](C(=O)NCC(=O)O)c3ccccc3)cc2S(=O)(=O)C1 [elobixibat]
IC50 (SOAT): 3.2 µM and 3.3 µM
IC50 (OATP1B3; in vitro studies, ref PMDA Goofice Report on the Deliberation Results): > 0.6 µM
Inhibition curves and AUC of NTCP→ASBT mutant compared to wild-type NTCP (NTCP M290S (NTCP→ASBT)): did not significantly change

CCCC[C@]1(CC)CS(=O)(=O)c2cc(CNC(CC(=O)O)CC(=O)O)c(OC)cc2[C@@H](c2ccccc2)N1 [linerixibat]
SOAT inhibition (in words) (SOAT; inhibitor up to 100 μM): failed to significantly inhibit SOAT
Substrate of OATP1B3 (OATP1B3): is a substrate
IC50 (OATP1B3; ref 65 Zamek-Gliszczynski et al. (2021)): 0.265 µM
Inhibition curves and AUC of NTCP→ASBT mutant compared to wild-type NTCP (NTCP M290S (NTCP→ASBT)): still inactive

CCCCC1(CCCC)CS(=O)(=O)c2ccc(N(C)C)cc2[C@@H](c2ccc(OCc3ccc(C[N+]45CCN(CC4)CC5)cc3)cc2)[C@H]1O [maralixibat]
IC50 (SOAT): 4.5 µM and 5.9 µM
OATP1B3 inhibition (in words) (OATP1B3; in vitro, ref FDA NDA 214662 Livmarli): In vitro, maralixibat did not inhibit the transporters OATP1B1 and OATP1B3.
Inhibition curves and AUC of NTCP→ASBT mutant compared to wild-type NTCP (NTCP M290S (NTCP→ASBT)): did not significantly change

CCCCC1(CCCC)CN(c2ccccc2)c2cc(SC)c(OCC(=O)N[C@@H](C(=O)N[C@@H](CC)C(=O)O)c3ccc(O)cc3)cc2S(=O)(=O)N1 [odevixibat]
IC50 (SOAT): 5.5 µM and 5.6 µM
IC50 (OATP1B3; in vitro studies, ref FDA NDA 215498 BYLVAY): 0.697 µM
OATP1B3 inhibition (in words) (OATP1B3; ref EMA EPAR Product Information Bylvay): Odevixibat does not inhibit OATP1B1 and OATP1B3.
Inhibition curves and AUC of NTCP→ASBT mutant compared to wild-type NTCP (NTCP M290S (NTCP→ASBT)): did not significantly change
